Here are results for five compounds from patent US7838685B2 (priority 2005, dated 2010).

SMILES strings stand for the structures. Where “and” joins values, the source holds several entries; their conditions need not be identical. Equal values may be shown once.

The nature of data set [1]: Zeta potential of the molecular assembly including a single type of cationic amino acid type lipid. It is filed as physicochemical. Conditions: molecular assembly 1 mg/mL, extrusion method, 30 mM phosphoric buffer solution pH7.4. On the procedure: The zeta potential of a molecular assembly (1 mg/mL) including a single type of cationic amino acid type lipid (2), (3) or (4) prepared by the extrusion method was measured by a zeta potentiometer (Nano-ZS, Malvern) with 30 mM of a phosphoric buffer solution at pH7.4. The zeta potential of each molecular assembly was +37 mV with the cationic amino acid type lipid (2), +45 mV with the cationic amino acid type lipid (3), and lower at +18 mV with the cationic amino acid type lipid (4). From such zeta potentials, it has been clarified that the surface of a molecular assembly formed of a cationic amino acid type lipid is charged positive under physiological conditions.

Data set [2] is described as follows: Observation of the molecular assembly with transmission electron microscope. It is filed as physicochemical. To be noted: for Form of molecular assembly observed with electron microscope: hydrate dispersion extruded. As for the experimental part:
(§1) 10 mg of the cationic amino acid type lipid (2), (3) or (4) was hydrated in 2 mL of pure water and stirred at room temperature for 6 hours. Then, the resultant hydrate was transmitted with pressure through a membrane filter (final pore diameter: 0.22 μm) (extrusion method). […] After the transmission, the resultant substance was subjected to ultracentrifugation (33,000 rpm, 30 min.) and re-dispersed in pure water to obtain a molecular assembly including a respective cationic amino acid type lipid.
The thickness of the ribbon is considered to be about 5 nm, which is approximately the same as the thickness of the bilayer.

Data set [3] can be described thus: Particle size of the molecular assembly by dynamic light scattering method. It is filed as physicochemical. To be noted: hydrate extruded through 0.22 μm membrane filter. As for the experimental part:
as §1
A hydrate dispersion solution of the cationic amino acid type lipid (2) was extruded and observed with an electron microscope. The particle size of the vesicles was approximately the same as the particle size thereof measured by a dynamic light scattering method (181±83 nm).
(§2) Lys-Asp2C16 (5) was hydrated at a lipid concentration of 10 mg/mL and transmitted through a membrane filter having a final pore diameter of 0.22 μm by the extrusion method. Then, the phase transition temperature and the particle size of the assembly were measured. The particle size of the molecular assembly of Lys-Asp2C16 (5) measured by the dynamic light scattering method was 374±178 nm, and the phase transition temperature thereof was 30° C.

Data set [4] is described as follows: Phase transition temperature by differential scanning calorimeter. It is filed as physicochemical. Conditions: for Tc, temperature of the gel to liquid-crystalline phase transition: dispersed in pure water, lipid concentration 1 wt %, DSC 2° C./min, 20 to 80° C.; for Transition temperature: comparison of cationic vesicles, hydrated at 10 mg/mL, extruded through 0.22 μm filter. On the procedure: Each of the obtained cationic amino acid type lipids was dispersed in a simple medium of pure water at 60° C. and used as a measurement sample. 60 μL of a sample solution (lipid concentration: 1 wt %) was encapsulated in a silver pan (sealable type), and the phase transition temperature Tc was measured by a differential scanning calorimeter with the temperature elevation rate of 2° C./min. and the measurement temperature of 20 to 80° C.
as §2

Data set [5] relates to human fibroblasts CCD-32SK. Nature of the data set: Cytotoxicity test, cell survival rate by WST assay, CCD-32SK. It is filed as cell-based. Conditions: 24 h, 10 μg/dish. On the procedure: (§3) The cationic amino acid type lipid (2) was evaluated in terms of cytotoxicity by adding different amounts thereof to cells. Specifically, 1×10^4 simian kidney-derived cells COS-7 or human fibroblasts CCD-32SK were planted to dishes and cultured for 24 hours in an incubator. To the cultured cells, a cationic liposome diluted with a medium was added so as to be 0.1, 1, 5, and 10 μg/dish. The cells were cultured for another 24 hours. Then, the cells were washed with a medium, and the cell survival rate was calculated by the WST assay. Based on the results, the cytotoxicity was evaluated (n=2). For comparison, the same test was performed using lipofectamine, which is currently in general use as a gene introduction drag. In the figure, (a) represents the results with COS-7, and (b) represents the results with CCD-32SK. Where 10 μg of lipofectamine was added to COS-7, the cell survival rate 24 hours later was 20%.

The test system of data set [6] is simian kidney-derived cells COS-7. Nature of the data set: Cytotoxicity test, cell survival rate by WST assay, COS-7. It is filed as cell-based. Conditions: COS-7, 10 μg added, 24 hours later. On the procedure:
as §3

Turning to `CCCCCCCCCCCCCCCCOC(=O)CCC(NC(=O)C(N)Cc1c[nH]cn1)C(=O)OCCCCCCCCCCCCCCCC` (centres unmarked) [Compound 3], the ξ potential result in data set [1] was “+45 mV”. Besides, in data set [2] (electron microscope), the “Diameter of tubular molecular assembly” value was “about 20 nm” and the “Wall thickness of the tube” value is on record as “about 5 nm”. In data set [2] (TEM), the “Form of molecular assembly observed with electron microscope” value (shortened to “Form of molecular assembly observed”) is listed as “tubular molecular assembly”. Also, the “Particle size (dynamic light scattering method)” value (shortened to “Particle size”) in data set [3] was 241±96 nm. In addition, in data set [4], the “Tc, temperature of the gel to liquid-crystalline phase transition” value (“Tc, temperature of the gel” for short) stood at 43.7 °C.

For `CCCCCCCCCCCCCCCCOC(=O)CCC(N)C(=O)OCCCCCCCCCCCCCCCC` (centres unmarked) [Compound 1], the “Tc, temperature of the gel” value in data set [4] worked out at 49.4 °C.

With `CCCCCCCCCCCCCCCCOC(=O)CCC(NC(=O)C(N)CCCNC(=N)N)C(=O)OCCCCCCCCCCCCCCCC` (centres unmarked) [Compound 4], the ξ potential entry in data set [1] was “+18 mV”. Also, the “Form of molecular assembly observed” value in data set [2] (TEM) is “monolayer vesicle structures”. For the same compound, in data set [3], the “Particle size” value is 1647±733 nm. Moreover, in data set [4], the “Tc, temperature of the gel” value was 44.8 °C.

Regarding `CCCCCCCCCCCCCCCCOC(=O)CC(NC(=O)C(N)CCCCN)C(=O)OCCCCCCCCCCCCCCCC` (centres unmarked) [Compound 5, Lys-Asp2C16, reference compound], in data set [2] (TEM), the “Length of the ribbon” value is on record as not below 1 μm, the “Thickness of the ribbon” value was “about 5 nm”, the “Width of the ribbon” value is “about 100 nm” and the “Form of molecular assembly observed” value is reported as “ribbon-like molecular assembly”. Besides, in data set [2] (after transmission through 0.22 μm membrane filter), the “Stability of the form of the molecular assembly” value is given as “unstable in the form”. The “Particle size” value in data set [3] stood at 374 ± 178 nm. Further, the “Particle size” value in data set [3] (listed as Lys-Asp2C16 (5)) is 374±178 nm. In addition, the Transition temperature in data set [4] was found to be 30.0 °C. Further, in data set [4] (listed as Lys-Asp2C16 (5)), the Transition temperature was 30 °C.

With `CCCCCCCCCCCCCCCCOC(=O)CCC(NC(=O)C(N)CCCCN)C(=O)OCCCCCCCCCCCCCCCC` (centres unmarked) [Compound 2], in data set [1], the ξ potential result was “+37 mV”. Besides, in data set [3], the “Particle size” value is 181±83 nm and 188 ± 82 nm. Further, the Cell survival rate result in data set [5] is reported as “about 80%”; in data set [6], “not decreased at all”. For the same compound, in data set [4], the Transition temperature came out at 41.2 °C. For the same compound, the “Tc, temperature of the gel” value in data set [4] was determined as 41.2 °C.
